target: T1, human orexin type 2 receptor (Homo sapiens, UniProt O43614); assay: Measurement of orexin type 2 receptor agonist activity (calcium fluorescence, CHO cells forcibly expressing human OX2 receptor); assay type: cell-based; details: compound at 3 μM, DMSO = 0%, orexin A (human) 10 nM = 100%
T1 construct: expressed in transfected cells
T1 sequence (O43614 1-444): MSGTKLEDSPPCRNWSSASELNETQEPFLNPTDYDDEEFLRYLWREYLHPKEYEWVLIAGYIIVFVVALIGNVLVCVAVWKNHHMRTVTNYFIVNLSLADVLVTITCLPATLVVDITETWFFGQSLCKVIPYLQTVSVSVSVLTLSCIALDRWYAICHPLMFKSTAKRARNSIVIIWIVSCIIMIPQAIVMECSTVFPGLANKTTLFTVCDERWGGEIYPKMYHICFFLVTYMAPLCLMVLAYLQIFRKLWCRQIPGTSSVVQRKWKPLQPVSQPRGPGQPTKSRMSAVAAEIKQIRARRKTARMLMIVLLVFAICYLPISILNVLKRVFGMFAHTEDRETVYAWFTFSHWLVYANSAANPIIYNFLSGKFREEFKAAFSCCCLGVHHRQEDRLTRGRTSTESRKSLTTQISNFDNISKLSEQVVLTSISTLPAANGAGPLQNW
From the text: To obtain a cell clone stably expressing human orexin type 2 receptor, human orexin type 2 receptor cDNA was inserted into pcDNA3.1(+) plasmid vector (Invitrogen), and a plasmid DNA for expression of human orexin type 2 receptor (pcDNA3.1(+)/hOX2R) was cloned. The plasmid DNA was introduced into CHO-K1 cell by an electroporation method, and human orexin type 2 receptor-expressing clonal cells were obtained by limiting dilution method using G418 drug resistance as a selection marker.
CHO cells forcibly expressing human OX2 receptor were seeded in each well of 384 well black transparent bottom plate (BD Falcon) at 10,000 cells/well, and cultured for one day in a 5% CO2 incubator at 37° C. After removal of the medium in the cell plate, assay buffer A containing a calcium indicator (HBSS (Thermo Fisher Scientific), 20 mM HEPES (Thermo Fisher Scientific), 0.1% BSA (Sigma-Aldrich), 2.5 μg/mL Fluo-4 AM (DOJINDO Chemical), 0.08% Pluronic F127 (DOJINDO Chemical), 1.25 mM probenecid (DOJINDO Chemical)) was added thereto at 30 μL/well. The plate was stood for 30 min in a 5% CO2 incubator at 37° C., and further stood at room temperature for 30 min. A test compound prepared by diluting with assay buffer B (HBSS, 20 mM HEPES, 0.1% BSA) was added thereto at 10 μL/well, and the fluorescence value was measured by FDSSμCELL (Hamamatsu Photonics K.K.) every one sec for 1 min, and thereafter every two sec for 1 min 40 sec. The activity (%) of the test compound was calculated assuming that variation in the fluorescence value when DMSO was added instead of the test compound was 0%, and variation in the fluorescence value when orexin A (human) (PEPTIDE INSTITUTE, INC.) was added at the final concentration of 10 nM was 100%.

Row | OX2R agonist activity (3 μM, %) [%] | Structure (SMILES)
1 | 56 | Cc1ccc2n(c1=O)C(COC1CCC(COC3CCCCO3)CC1)C(NS(C)(=O)=O)CC2 (racemic) [Example 82, N-[(3SR,4RS)-7-methyl-4-(([(1s,4S)-4-{[(oxay-2-yl)oxy]methyl}cyclohexyl]oxy}methyl)-6-oxo-1,3,4,6-tetrahydro-2H-quinolizin-3-yl]methanesulfonamide]
2 | 75 | CCOC(=O)CC1CCC(OCC2C(NS(C)(=O)=O)CCc3ccc(C)c(=O)n32)CC1 (racemic) [Example 84, rac-ethyl [(1S,4s)-4-({(3S,4R)-3-[(methanesulfonyl)amino]-7-methyl-6-oxo-1,3,4,6-tetrahydro-2H-quinolizin-4-yl}methoxy)cyclohexyl]acetate]
3 | 59 | Cc1ccc2n(c1=O)C(COC1CCC(CC(C)(C)O)CC1)C(NS(C)(=O)=O)CC2 (racemic) [Example 85, rac-N-[(3S,4R)-4-({[(1s,4S)-4-(2-hydroxy-2-methylpropyl)cyclohexyl]oxy}methyl)-7-methyl-6-oxo-1,3,4,6-tetrahydro-2H-quinolizin-3-yl]methanesulfonamide]
4 | 89 | Cc1ccc2n(c1=O)C(COC1CCC(CF)CC1)C(NS(C)(=O)=O)CC2 (racemic) [Example 86, rac-N-[(3S,4R)-4-({[(1s,4S)-4-(fluoromethyl)cyclohexyl]oxy}methyl)-7-methyl-6-oxo-1,3,4,6-tetrahydro-2H-quinolizin-3-yl]methanesulfonamide]
5 | 89 | Cc1ccc2n(c1=O)C(COC1CCC(CC3CC3)CC1)C(NS(C)(=O)=O)CC2 (racemic) [Example 87, rac-N-[(3S,4R)-4-({[(1s,4S)-4-(cyclopropylmethyl)cyclohexyl]oxy}methyl)-7-methyl-6-oxo-1,3,4,6-tetrahydro-2H-quinolizin-3-yl]methanesulfonamide]
6 | 90 | Cc1ccc2n(c1=O)C(COC1CCC(COC(C)C)CC1)C(NS(C)(=O)=O)CC2 (racemic) [Example 92, rac-N-[(3S,4R)-7-methyl-6-oxo-4-({[(1s,4S)-4-([(propan-2-yl)oxy]methyl}cyclohexyl]oxy}methyl)-1,3,4,6-tetrahydro-2H-quinolizin-3-yl]methanesulfonamide]
7 | 94 | Cc1ccc2n(c1=O)C(COC1CCC(C3CC3C)CC1)C(NS(C)(=O)=O)CC2 (racemic) [Example 97, N-{7-methyl-4-[({(1S,4S)-4-[(1RS,2SR)-2-methylcyclopropyl]cyclohexyl)oxy)methyl]-6-oxo-1,3,4,6-tetrahydro-2H-quinolizin-3-yl]methanesulfonamide]
8 | 91 | C=CC1CCC(OCC2C(NS(C)(=O)=O)CCc3ccc(C)c(=O)n32)CC1 (racemic) [Example 99, rac-N-[(3S,4R)-4-({[(1s,4S)-4-ethenylcyclohexyl]oxy}methyl)-7-methyl-6-oxo-1,3,4,6-tetrahydro-2H-quinolizin-3-yl]methanesulfonamide]
9 | 101 | C#CC1CCC(OCC2C(NS(C)(=O)=O)CCc3ccc(C)c(=O)n32)CC1 (racemic) [Example 108, rac-N-[(3S,4R)-4-({[(1s,4S)-4-ethynylcyclohexyl]oxy}methyl)-7-methyl-6-oxo-1,3,4,6-tetrahydro-2H-quinolizin-3-yl]methanesulfonamide]
10 | 91 | C/C=C\C1CCC(OCC2C(NS(C)(=O)=O)CCc3ccc(C)c(=O)n32)CC1 (racemic) [Example 110, rac-N-{(3S,4R)-7-methyl-6-oxo-4-[({(1s,4S)-4-[(1Z)-prop-1-en-1-yl]cyclohexyl}oxy)methyl]-1,3,4,6-tetrahydro-2H-quinolizin-3-yl}methanesulfonamide]
11 | 112 | Cc1ccc2n(c1=O)C(COC1CCC(C)CC1)C(NS(C)(=O)=O)CC2 [Example 5, rel-N-[(3S,4R)-7-methyl-4-({[(1r,4R)-4-methylcyclohexyl]oxy}methyl)-6-oxo-1,3,4,6-tetrahydro-2H-quinolizin-3-yl]methanesulfonamide]
12 | 96 | CCC1CCC(OCC2C(NS(C)(=O)=O)CCc3ccc(C4CC4)c(=O)n32)CC1 [Example 66, rel-N-[(3S,4R)-7-cyclopropyl-4-({[(1s,4S)-4-ethylcyclohexyl]oxy}methyl)-6-oxo-1,3,4,6-tetrahydro-2H-quinolizin-3-yl]methanesulfonamide]
13 | 99 | CCc1ccc2n(c1=O)C(COC1CCC(C)CC1)C(NS(=O)(=O)CC)CC2 [Example 71, rel-N-[(3S,4R)-7-ethyl-4-(([(1s,4S)-4-methylcyclohexyl]oxy}methyl)-6-oxo-1,3,4,6-tetrahydro-2H-quinolizin-3-yl)ethanesulfonamide]
14 | 87 | COc1ccccc1C1CCC(OCC2C(NS(C)(=O)=O)CCc3ccc(C)c(=O)n32)CC1 [Example 90, rel-N-[(3S,4R)-4-({[(1s,4S)-4-(2-methoxyphenyl)cyclohexyl]oxy}methyl)-7-methyl-6-oxo-1,3,4,6-tetrahydro-2H-quinolizin-3-yl]methanesulfonamide]

Continued, compound first:

Row | Structure (SMILES) | OX2R agonist activity (3 μM, %) [%]
15 | CCOCC1CCC(OCC2C(NS(C)(=O)=O)CCc3ccc(C)c(=O)n32)CC1 (racemic) [Example 81, rac-N-[(3S,4R)-4-({[(1s,4S)-4-(ethoxymethyl)cyclohexyl]oxy}methyl)-7-methyl-6-oxo-1,3,4,6-tetrahydro-2H-quinolizin-3-yl]methanesulfonamide] | 102
16 | COCCC1CCC(OCC2C(NS(C)(=O)=O)CCc3ccc(C)c(=O)n32)CC1 (racemic) [Example 83, rac-N-[(3S,4R)-4-({[(1s,4S)-4-(2-methoxyethyl)cyclohexyl]oxy}methyl)-7-methyl-6-oxo-1,3,4,6-tetrahydro-2H-quinolizin-3-yl]methanesulfonamide] | 91
17 | Cc1ccc2n(c1=O)C(COC1CCC(CC(C)C)CC1)C(NS(C)(=O)=O)CC2 (racemic) [Example 88, rac-N-[(3S,4R)-7-methyl-4-({[(1a,4S)-4-(2-methylpropyl)cyclohexyl]oxy}methyl)-6-oxo-1,3,4,6-tetrahydro-2H-quinolizin-3-yl]methanesulfonamide] | 95
18 | Cc1ccc2n(c1=O)C(COC1CCC(C3CCC3)CC1)C(NS(C)(=O)=O)CC2 (racemic) [Example 93, rac-N-[(3S,4R)-4-({[(1s,4S)-4-cyclobutylcyclohexyl]oxy}methyl)-7-methyl-6-oxo-1,3,4,6-tetrahydro-2H-quinolizin-3-yl]methanesulfonamide] | 97
19 | CC#CC1CCC(OCC2C(NS(C)(=O)=O)CCc3ccc(C)c(=O)n32)CC1 (racemic) [Example 109, rac-N-[(3S,4R)-7-methyl-6-oxo-4-({[(1s,4S)-4-(prop-1-yn-1-yl)cyclohexyl]oxy}methyl)-1,3,4,6-tetrahydro-2H-quinolizin-3-yl]methanesulfonamide] | 96
20 | Cc1ccc2n(c1=O)C(COC1CCC(c3ccccn3)CC1)C(NS(C)(=O)=O)CC2 (racemic) [Example 116, rac-N-[(3S,4R)-7-methyl-6-oxo-4-({[(1s,4S)-4-(pyridin-2-yl)cyclohexyl]oxy)methyl)-1,3,4,6-tetrahydro-2H-quinolizin-3-yl]methanesulfonamide] | 99
21 | Cc1ccc2n(c1=O)C(COC1CCC(C)CC1)C(NS(C)(=O)=O)CC2 [Example 1, rel-N-[(3S,4R)-7-methyl-4-({[(1s,4S)-4-methylcyclohexyl]oxy}methyl)-6-oxo-1,3,4,6-tetrahydro-2H-quinolizin-3-yl]methanesulfonamide] | 96
22 | Cc1ccc2n(c1=O)C(COC1CCC(c3ccccc3C(F)(F)F)CC1)C(NS(C)(=O)=O)CC2 [Example 72, rel-N-{(3S,4R)-7-methyl-6-oxo-4-[({(1s,4S)-4-[2-(trifluoromethyl)phenyl]cyclohexyl}oxy)methyl]-1,3,4,6-tetrahydro-2H-quinolizin-3-yl]methanesulfonamide] | 108
23 | Cc1ccc2n(c1=O)C(COC1CCC(c3c(F)cccc3F)CC1)C(NS(C)(=O)=O)CC2 [Example 89, rel-N-[(3S,4R)-4-({[(1s,4S)-4-(2,6-difluorophenyl)cyclohexyl]oxy)methyl)-7-methyl-6-oxo-1,3,4,6-tetrahydro-2H-quinolizin-3-yl]methanesulfonamide] | 89

— US12448377B2, “Heterocyclic compound” (Takeda Pharmaceutical Company Limited, priority 2019, dated 2025)
